The values that follow come from ChEMBL document CHEMBL5729305, “Compounds, salts thereof and methods for treatment of diseases” (2022).

Each structure is given as a SMILES string.

For this assay, the target named is 5-hydroxytryptamine receptor 2A (Homo sapiens, UniProt P28223). Briefly: Receptor Selection and Amplification (R-SAT) Assays: R-SAT's were generally performed with 50 ng/well of receptor and 20 ng/well of β-galactosidase plasmid DNA. All receptor constructs used were in the pSI mammalian expression vector (Promega Inc) as described previously. The 5-HT2A receptor gene was amplified by nested PCR (polymerase chain reaction) from brain cDNA using the …. It is filed as cell-based.
Sequence of 5-hydroxytryptamine receptor 2A (P28223 whole entry): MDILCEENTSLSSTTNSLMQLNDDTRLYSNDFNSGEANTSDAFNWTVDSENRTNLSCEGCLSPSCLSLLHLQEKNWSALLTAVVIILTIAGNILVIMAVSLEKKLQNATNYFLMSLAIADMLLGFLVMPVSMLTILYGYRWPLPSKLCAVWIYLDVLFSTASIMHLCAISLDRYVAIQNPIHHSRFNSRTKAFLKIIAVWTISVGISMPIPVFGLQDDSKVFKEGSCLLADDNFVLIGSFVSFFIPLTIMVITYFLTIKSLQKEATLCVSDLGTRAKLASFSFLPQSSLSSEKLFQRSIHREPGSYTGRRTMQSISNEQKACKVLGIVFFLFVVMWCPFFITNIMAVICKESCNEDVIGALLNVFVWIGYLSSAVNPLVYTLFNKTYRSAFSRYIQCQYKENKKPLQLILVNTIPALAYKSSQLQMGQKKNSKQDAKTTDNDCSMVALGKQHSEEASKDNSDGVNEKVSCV

Broadly, the Ki is the equilibrium dissociation constant of an inhibitor or competing ligand from its target. A lower Ki goes with tighter binding. `CC(C)Oc1ccc(CC(=O)N(Cc2ccc(F)cc2F)[C@@H]2CCN(C)C[C@@H]2F)cc1` (mixture of isomers) showed a Ki of 0.01 µM.
